# Columns and labels:
# [1] = biological target: T1, α4β7 (Homo sapiens, UniProt P13612+P26010); assay: Cell-based MAdCAM-1 ligand binding assay (LBA) on RPMI 8866 cells (Example 6); conditions: MAdCAM-1-Fc Dylight 650, 3 mM manganese chloride, flow cytometry, Table 4 comparative compounds, read-out: LB Assay (Example 6)
# T1 construct: endogenous in cells; host or cells: RPMI 8866 cells
# T1 sequence (P13612 34-1032): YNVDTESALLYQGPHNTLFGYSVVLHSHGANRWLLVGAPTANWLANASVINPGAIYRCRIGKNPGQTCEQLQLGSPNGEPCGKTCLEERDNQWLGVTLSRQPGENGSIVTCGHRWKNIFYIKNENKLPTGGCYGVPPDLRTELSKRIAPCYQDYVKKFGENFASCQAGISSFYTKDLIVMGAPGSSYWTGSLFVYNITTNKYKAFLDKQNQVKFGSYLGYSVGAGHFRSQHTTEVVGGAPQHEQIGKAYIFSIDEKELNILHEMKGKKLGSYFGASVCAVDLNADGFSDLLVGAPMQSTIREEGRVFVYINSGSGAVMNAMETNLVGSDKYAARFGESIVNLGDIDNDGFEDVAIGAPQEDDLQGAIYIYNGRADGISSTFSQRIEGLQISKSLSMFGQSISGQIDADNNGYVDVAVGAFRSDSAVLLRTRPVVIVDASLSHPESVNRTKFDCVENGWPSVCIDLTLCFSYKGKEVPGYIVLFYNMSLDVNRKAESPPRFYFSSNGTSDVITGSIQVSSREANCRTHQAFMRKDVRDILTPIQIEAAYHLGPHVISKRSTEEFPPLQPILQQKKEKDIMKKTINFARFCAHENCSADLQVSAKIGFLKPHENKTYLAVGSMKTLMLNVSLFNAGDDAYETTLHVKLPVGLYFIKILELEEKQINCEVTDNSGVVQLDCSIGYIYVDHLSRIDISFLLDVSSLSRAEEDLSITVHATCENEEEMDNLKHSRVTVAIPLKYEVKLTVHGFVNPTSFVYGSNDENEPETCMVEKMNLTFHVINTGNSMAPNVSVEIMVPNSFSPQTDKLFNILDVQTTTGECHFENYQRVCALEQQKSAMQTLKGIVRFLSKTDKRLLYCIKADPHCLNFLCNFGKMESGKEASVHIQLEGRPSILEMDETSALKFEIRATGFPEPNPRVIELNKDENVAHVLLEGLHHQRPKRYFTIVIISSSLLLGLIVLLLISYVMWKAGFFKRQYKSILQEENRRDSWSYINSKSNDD
# T1 sequence (P26010 20-798): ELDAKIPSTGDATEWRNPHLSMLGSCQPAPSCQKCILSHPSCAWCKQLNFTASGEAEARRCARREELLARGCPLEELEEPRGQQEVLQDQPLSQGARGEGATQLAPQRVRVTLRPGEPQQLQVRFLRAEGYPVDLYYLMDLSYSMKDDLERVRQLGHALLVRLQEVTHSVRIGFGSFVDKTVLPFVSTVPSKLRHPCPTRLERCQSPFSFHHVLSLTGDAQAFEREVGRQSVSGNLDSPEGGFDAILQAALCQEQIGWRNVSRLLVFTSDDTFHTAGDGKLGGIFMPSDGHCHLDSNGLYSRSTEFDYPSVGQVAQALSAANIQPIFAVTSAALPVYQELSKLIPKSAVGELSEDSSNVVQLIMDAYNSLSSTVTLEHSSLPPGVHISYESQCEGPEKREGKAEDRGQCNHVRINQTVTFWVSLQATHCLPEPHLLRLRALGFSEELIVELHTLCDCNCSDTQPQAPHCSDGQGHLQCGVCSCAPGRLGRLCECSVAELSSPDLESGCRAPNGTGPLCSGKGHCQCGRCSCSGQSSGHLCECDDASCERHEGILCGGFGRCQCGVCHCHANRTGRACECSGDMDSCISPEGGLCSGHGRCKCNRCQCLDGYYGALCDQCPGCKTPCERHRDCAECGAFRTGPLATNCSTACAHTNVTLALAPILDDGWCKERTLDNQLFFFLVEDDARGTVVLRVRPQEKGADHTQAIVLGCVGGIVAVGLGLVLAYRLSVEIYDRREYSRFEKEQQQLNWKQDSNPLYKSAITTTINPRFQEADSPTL
# Text: Compounds of Formula (I) were further evaluated using a Ligand binding assay (LBA) to examine compound potency of free ligand binding to receptors expressed on cells. The MAdCAM ligand binding assay uses flow cytometry to measure the binding of fluorescently-labeled MAdCAM-1-Fc to RPMI 8866 cells in the presence of Mn++. This assay assesses the binding of compounds to native full-length receptors on the cell surface. […] Ligand binding assays (LBA) are used to examine compound potency and selectivity of free ligand binding to receptors expressed on cells.
# (§1) Three in vitro assays were used to examine the α4β7 mechanistic process used by cells: 1) ligand:receptor affinity, 2) the avidity of those interactions on a cell's surface, and 3) how those interactions fare under an imposing force. In Example 5, a Fluorescence Polarization (FP) assay is used to measure compound activity through binding competition with the fluorescein-labeled peptide. In Example 6, the potency of compounds against α4β7 is measured in the cell-based ligand binding assay (LBA), using RPMI 8866 cells incubated with the compound samples in competition with soluble MAdCAM-1 ligand. In Example 7, activity of compounds is evaluated in a cell adhesion assay that mechanistically tests what occurs in vivo when trafficking cells utilize α4β7 to adhere to MAdCAM-1 expressing HEVs of the gut during the extravasation process. In the cell adhesion assay of Example 7, a MAdCAMI1-(Fc) is coated on plastic, and α4β7 expressing cells (RPMI-8866) are allowed to adhere to the coated surface in the presence of the test compounds. Next, the force of washing with buffer is applied to cells thereby testing the strength of that adhesion. Unattached cells are removed and the remaining adherent cells are quantified.
# 5 ul of 33 nM MAdCAM-1-Fc fluorescently labeled with Dylight 650 in 50 mM HEPES pH 7.3, 150 mM sodium chloride, and 1% bovine serum albumin was added to the cells. The samples were incubated for 45 minutes at room temperature, fixed with 0.8% formaldehyde for 30 minutes at room temperature, and washed with 50 mM Tris pH 7.5, 150 mM NaCl, 1 mM EDTA, and 1% bovine serum albumin. Fluorescence intensity for each cell was measured via flow cytometry. Dead cells were excluded from further analysis based on staining with the 780 fixable viability dye. Median fluorescence intensity for Dylight 650 was determined for each sample and concentration-response curves were analyzed for IC50 values using 4-parameter non-linear regression analysis.
# [2] = biological target: T1, α4β7; assay: Cell adhesion assay, RPMI8866 cells on MAdCAM coated plates (Example 7); type: cell-based; conditions: RPMI8866 cells adhering to recombinant human MAdCAM, read-out: CA Assay (Example 7)
# Procedure: as §1
# Example 7 describes a cell adhesion assay.
# To each well of a 96 well plate, 100 ug of recombinant human MAdCAM in 100 ul PBS is added and incubated overnight at 4° C. After incubation MAdCAM is removed by aspiration and 200 ul of PBS+1% BSA is added to block the plate for 2 hours at 37° C. and 5% CO2. During this incubation dilution curves of compound are made in 100% DMSO in 96 well V bottom plates. 1.75 ul of diluted compounds are then transferred to a new 96 well U bottom plate containing 20 ul of assay media (phosphate free DMEM+25 mM HEPES+1% BSA). To this an additional 155 ul of assay media is added with mixing by pipetting up and down. This mixture is allowed to incubate for 15 minutes at 37° C. and 5% CO2. After incubation 175 ul of assay media containing 2e6/mL RPMI8866 cells is added to compound containing wells without mixing and plate is allowed to incubate for another 15 minutes at 37° C. and 5% CO2. During this incubation MAdCAM coated plates are removed from incubator and washed twice with 200 ul PBS+0.1% BSA. […] This plate is then incubated at 37° C. and 5% CO2 for 1 hour. After incubation plates are washed twice with 200 ul and once with 50 ul of phenol free RPMI+1% BSA. A final 50 ul of phenol free RPMI+1% BSA is added to wells after last wash. Next 50 ul of Promega cell titer glow is added to the wells. Plate is incubated on shaker for 2 minutes at 200 RPM followed by another 8 minutes off shaker before having the luminescence read on a Biotek Citation 5 plate reader. Raw data is converted to % inhibition compared to bottom of curve and analyzed using a 4-parameter non linear curve in Prism to determine IC50 and IC90.
# [3] = biological target: T2, integrin α4β7 (Homo sapiens, UniProt P13612+P26010); assay: Fluorescence polarization (FP) assay for α4β7 binding (Example 5); conditions: competition with fluorescein-labeled peptide, 6.5 nM integrin α4β7, 2 mM manganese chloride; Table 4 comparative compounds
# T2 sequence (P13612 35-977 limits assumed): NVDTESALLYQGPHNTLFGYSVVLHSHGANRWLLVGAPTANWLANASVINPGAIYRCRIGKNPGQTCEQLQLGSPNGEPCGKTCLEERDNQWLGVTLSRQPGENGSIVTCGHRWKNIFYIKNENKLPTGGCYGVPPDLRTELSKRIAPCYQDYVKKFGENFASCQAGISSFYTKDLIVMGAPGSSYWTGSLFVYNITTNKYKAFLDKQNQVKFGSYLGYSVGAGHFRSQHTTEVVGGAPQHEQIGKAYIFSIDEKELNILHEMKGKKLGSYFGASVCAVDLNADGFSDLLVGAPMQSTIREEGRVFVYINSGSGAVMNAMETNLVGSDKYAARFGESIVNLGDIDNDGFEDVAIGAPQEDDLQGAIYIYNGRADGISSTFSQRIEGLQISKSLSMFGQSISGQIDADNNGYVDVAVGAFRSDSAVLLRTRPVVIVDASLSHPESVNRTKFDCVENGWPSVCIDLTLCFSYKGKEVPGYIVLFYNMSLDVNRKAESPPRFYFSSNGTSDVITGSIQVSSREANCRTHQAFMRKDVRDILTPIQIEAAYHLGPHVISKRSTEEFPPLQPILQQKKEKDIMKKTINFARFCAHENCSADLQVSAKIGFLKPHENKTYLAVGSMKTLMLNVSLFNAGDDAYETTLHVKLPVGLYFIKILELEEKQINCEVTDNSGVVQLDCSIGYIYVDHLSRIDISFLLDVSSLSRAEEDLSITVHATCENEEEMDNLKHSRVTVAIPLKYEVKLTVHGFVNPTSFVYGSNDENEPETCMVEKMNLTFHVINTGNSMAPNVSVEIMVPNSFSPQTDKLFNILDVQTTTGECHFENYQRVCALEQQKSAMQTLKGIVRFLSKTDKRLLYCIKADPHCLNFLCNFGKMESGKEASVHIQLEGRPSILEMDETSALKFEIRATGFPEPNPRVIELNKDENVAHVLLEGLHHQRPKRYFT
# T2 sequence (P26010 20-723 limits assumed): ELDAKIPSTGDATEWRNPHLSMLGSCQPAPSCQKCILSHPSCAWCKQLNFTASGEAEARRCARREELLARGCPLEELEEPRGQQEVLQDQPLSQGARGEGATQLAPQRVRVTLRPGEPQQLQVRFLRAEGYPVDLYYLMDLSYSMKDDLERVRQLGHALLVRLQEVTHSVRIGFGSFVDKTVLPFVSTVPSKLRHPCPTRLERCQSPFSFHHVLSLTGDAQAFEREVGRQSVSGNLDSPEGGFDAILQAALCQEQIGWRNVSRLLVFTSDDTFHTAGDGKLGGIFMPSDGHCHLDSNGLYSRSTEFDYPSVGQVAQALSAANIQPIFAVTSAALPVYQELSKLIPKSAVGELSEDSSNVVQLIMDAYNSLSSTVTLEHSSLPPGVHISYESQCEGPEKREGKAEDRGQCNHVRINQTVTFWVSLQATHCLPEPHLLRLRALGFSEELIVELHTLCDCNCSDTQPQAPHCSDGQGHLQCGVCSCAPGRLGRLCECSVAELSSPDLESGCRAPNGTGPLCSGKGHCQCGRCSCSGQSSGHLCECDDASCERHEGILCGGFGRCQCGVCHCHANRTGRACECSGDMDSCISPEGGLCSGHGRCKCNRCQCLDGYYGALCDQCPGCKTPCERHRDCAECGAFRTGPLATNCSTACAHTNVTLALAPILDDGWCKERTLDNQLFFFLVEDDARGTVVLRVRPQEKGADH
# Procedure: Compounds of Formula (I) were evaluated using a fluorescent polarization (FP) assay. FP assays are used to evaluate potency of compounds on purified protein. The FP assays consists of measuring purified integrin αβ heterodimer ecto domains or headpiece binding to surrogate or truncated ligands.
# as §1
# Fluorescence Polarization (FP) assays were used to measure compound activity through binding competition with the fluorescein-labeled peptide […]{Lys(FITC)}. In the assay, 6.5 nM of integrin α4β7 was incubated with the test compound in 2 mM manganese chloride, 0.1 mM calcium chloride, 20 mM HEPES buffer at pH 7.3, 150 mM sodium chloride, 0.01% Triton X-100, 2% DMSO, and 3 nM of the fluorescein-labeled peptide. Running the assays in 384-well plates, the integrin protein was pre-incubated with the test compounds for 15 minutes at 22° C. before the fluorescein-labeled peptide was added. After the fluorescein-labeled peptide was added, the assay was incubated at 22° C. for 1 hour and fluorescence polarization was measured. IC50 values were determined by nonlinear regression, four-parameter curve fitting.
IC50 [3] [µM],SMILES,also measured
,Cc1ccccc1-c1cc([C@H](CC(=O)O)NC(=O)[C@H](CC(C)C)n2ccc(C(F)(F)F)cc2=O)cnc1C,IC50 [1]: 0.01 to 0.5 µM; IC50 ([2]; Table 4 comparative compounds): > 0.1 µM
0.01 to 0.5,Cc1cccc(C)c1-c1cncc([C@H](CC(=O)O)NC(=O)[C@@H](CC(C)C)n2ccccc2=O)c1,
> 0.5,Cc1cccc(C)c1-c1cncc([C@@H](CC(=O)O)NC(=O)[C@H](CC(C)C)n2ccccc2=O)c1,
> 0.5,Cc1cccc(C)c1-c1cncc([C@@H](CC(=O)O)NC(=O)[C@@H](CC(C)C)n2ccccc2=O)c1,
,"COC1CN(CCc2cn([C@H](CC(C)C)C(=O)N[C@@H](CC(=O)O)c3cc(-c4c(C)cccc4C)cc(Cl)c3F)c(=O)cc2C(F)(F)F)C1 [W-P2, (3S)-3-(5-chloro-4-fluoro-2′,6′-dimethyl-[1,1′-biphenyl]-3-yl)-3-(2-(5-(2-(3-methoxyazetidin-1-yl)ethyl)-2-oxo-4-(trifluoromethyl)pyridin-1(2H)-yl)-4-methylpentanamido)propanoic acid]",IC50 ([2]; Table 3): < 0.005 µM

# Source: patent US11104661B1, “Inhibiting human integrin (α-4) (β-7)” (Morphic Therapeutic, Inc., priority 2019, dated 2021)
